In patent US20100152252A1, “Heterocyclyl-substituted-ethylamino-phenyl derivatives, their preparation and use as medicaments” (LABORATORIOS DEL DR. ESTEVE,S.A., priority 2006, published 2010):

Target: T1, Cloned Human Serotonin Receptor, Subtype 7 (h5HT7) (Homo sapiens, UniProt P34969)
T1 construct: purchased PerkinElmer 6120512; host or cells: CHO cells
Test: Radioligand binding, [125I]LSD, h5HT7 expressed in CHO cells
Settings: not given
Description: Radioligand binding assays were performed using the Cloned Human Serotonin Receptor, Subtype 7 (h5HT7), expressed in CHO cells, coated on Flashplate (Basic FlashPlate Cat.: SMP200) from PerkinElmer (Cat.: 6120512). The protocol assay was essentially the recommended protocol in the Technical Data Sheet by PerkinEmer Life and Analytical Sciences. The Mass membrane protein/well was typically […] and the Receptor/well was about 9-10 fmoles. The Flashplate were let equilibrate at room temperature for one hour before the addition of the components of the assay mixture. The binding buffer was: 50 mM Tris-HCl, pH 7.4, containing 10 mM MgCl2, 0.5 mM EDTA and 0.5% BSA. The radioligand was [^125I]LSD at a final concentration of 0.82 nM. Nonspecific binding was determined with 50 μM of Clozapine. The assay volume was 25 μl. TopSeal-A were applied onto Flashplate microplates and they were incubated at room temperature for 240 minutes in darkness. The radioactivity were quantified by liquid scintillation spectrophotometry (Wallac 1450 Microbeta Trilux) with a count delay of 4 minutes prior to counting and a counting time of 30 seconds per well. Competition binding data were analyzed by using the LIGAND program (Munson and Rodbard, LIGAND: A versatile, computerized approach for characterization of ligand-binding systems. Anal. Biochem. 107: 220-239, 1980) and assays were performed in triplicate determinations for each point.

T1 sequence (P34969 whole entry): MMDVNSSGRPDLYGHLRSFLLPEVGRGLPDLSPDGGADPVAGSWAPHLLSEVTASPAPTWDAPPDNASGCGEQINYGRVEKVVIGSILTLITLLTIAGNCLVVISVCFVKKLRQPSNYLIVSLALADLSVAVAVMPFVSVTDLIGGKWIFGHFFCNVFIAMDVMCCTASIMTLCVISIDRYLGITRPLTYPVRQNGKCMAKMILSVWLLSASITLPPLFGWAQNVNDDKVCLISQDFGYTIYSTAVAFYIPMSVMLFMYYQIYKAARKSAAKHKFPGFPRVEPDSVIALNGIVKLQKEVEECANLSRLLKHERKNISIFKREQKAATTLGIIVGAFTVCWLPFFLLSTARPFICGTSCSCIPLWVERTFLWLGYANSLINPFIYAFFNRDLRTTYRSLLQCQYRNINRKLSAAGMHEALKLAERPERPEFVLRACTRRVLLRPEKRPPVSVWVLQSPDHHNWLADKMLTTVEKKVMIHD

| SMILES | IC50 |
| --- | --- |
| Cc1nn(C)c(C)c1-c1cccc(CCN(C)C)c1 [Example 1, Dimethyl-{2-[3-(1,3,5-trimethyl-1H-pyrazol-4-yl)-phenyl]-ethyl}-amine] | 6.1 ± 0.7 nM |
| CCN(CC)CCc1cccc(-c2c(C)nn(C)c2C)c1 [Example 3, Diethyl-{2-[3-(1,3,5-trimethyl-1H-pyrazol-4-yl)-phenyl]-ethyl}-amine] | 76.2 nM |
| CCCN(CCC)CCc1cccc(-c2c(C)nn(C)c2C)c1 [Example 4, Dipropyl-{2-[3-(1,3,5-trimethyl-1H-pyrazol-4-yl)-phenyl]-ethyl}-amine] | 56.9 ± 17.9 nM |
| Cc1cccc(C)c1-c1cccc(CCN(C)C)c1 [Example 9, [2-(2′,6′-Dimethyl-biphenyl-3-yl)-ethyl]-dimethyl-amine] | 10.1 ± 0.8 nM |
| CCN(CC)CCc1cccc(-c2c(C)cccc2C)c1 [Example 11, [2-(2′,6′-Dimethyl-biphenyl-3-yl)-ethyl]-diethyl-amine] | 43.5 ± 15.9 nM |
| CCCN(CCC)CCc1cccc(-c2c(C)cccc2C)c1 [Example 12, [2-(2′,6′-Dimethyl-biphenyl-3-yl)-ethyl]-dipropyl-amine] | 42.6 ± 21.1 nM |
| COc1cccc(OC)c1-c1cccc(CCN(C)C)c1 [Example 13, [2-(2′,6′-Dimethoxy-biphenyl-3-yl)-ethyl]-dimethyl-amine] | 19.7 ± 1.5 nM |
| COc1ccccc1-c1cccc(CCN(C)C)c1 [Example 21, [2-(2′-Methoxy-biphenyl-3-yl)-ethyl]-dimethyl-amine] | 19.9 ± 1.7 nM |
| CCCN(CCC)CCc1cccc(-c2ccccc2OC)c1 [Example 24, [2-(2′-Methoxy-biphenyl-3-yl)-ethyl]-dipropyl-amine] | 84.9 nM |
| Cc1nn(C)c(C)c1-c1cccc(CCN)c1 [Example 29, 2-[3-(1,3,5-Trimethyl-1H-pyrazol-4-yl)-phenyl]-ethylamine] | 4.5 ± 1.5 nM |
| COc1cccc(OC)c1-c1cccc(CCN)c1 [Example 33, 2-(2′6′-Dimethoxy-biphenyl-3-yl)-ethylamine] | 122 nM |
| CN(C)CCc1cccc(-c2c(Cl)cccc2Cl)c1 [Example 34] | 5 ± 1.7 nM |
| CN(C)CCc1cccc(-c2c(F)cccc2F)c1 [Example 35, [2-(2′,6′-Difluoro-biphenyl-3-yl)-ethyl]-dimethyl-amine] | 20.8 nM |
| COc1ncccc1-c1cccc(CCN(C)C)c1 [Example 36, {2-[3-(2-Methoxy-pyridin-3-yl)-phenyl]-ethyl}-dimethyl-amine] | 303 nM |
| CNCCc1cccc(-c2cccnc2OC)c1 [Example 37, {2-[3-(2-Methoxy-pyridin-3-yl)-phenyl]-ethyl}-methyl-amine] | 157 nM |
| COc1cccc(Cl)c1-c1cccc(CCN(C)C)c1 [Example 38, [2-(6′-Chloro-2′-methoxy-biphenyl-3-yl)-ethyl]-dimethyl-amine] | 24 ± 2.3 nM |
| CNCCc1cccc(-c2c(Cl)cccc2OC)c1 [Example 39, [2-(6′-Chloro-2′-methoxy-biphenyl-3-yl)-ethyl]-methyl-amine] | 8.8 nM |

Same assay, conditions: [125I]LSD 0.82 nM, h5HT7 in CHO cells; read-out: 5-HT7 IC50

| SMILES | IC50 |
| --- | --- |
| Cc1n[nH]c(C)c1-c1cccc(CCN(C)C)c1 [Example 5, {2-[3-(3,5-Dimethyl-1H-pyrazol-4-yl)-phenyl]-ethyl}-dimethyl-amine] | 129 ± 16.8 nM |
| CCN(CC)CCc1cccc(-c2c(OC)cccc2OC)c1 [Example 15, [2-(2′,6′-Dimethoxy-biphenyl-3-yl)-ethyl]-diethyl-amine] | 302 nM |
| CCCN(CCC)CCc1cccc(-c2c(OC)cccc2OC)c1 [Example 16, [2-(2′,6′-Dimethoxy-biphenyl-3-yl)-ethyl]-dipropyl-amine] | 118 ± 45.9 nM |
| CCN(CC)CCc1cccc(-c2cnn(C)c2)c1 [Example 19, Diethyl-{2-[3-(1-methyl-1H-pyrazol-4-yl)-phenyl]-ethyl}-amine] | 753 nM |
| CCN(CC)CCc1cccc(-c2ccccc2OC)c1 [Example 23, Diethyl-[2-(2′-methoxy-biphenyl-3-yl)-ethyl]-amine] | 155 nM |
| Cc1noc(C)c1-c1cccc(CCN(C)C)c1 [Example 25, {2-[3-(3,5-Dimethyl-isoxazol-4-yl)-phenyl]-ethyl}-dimethyl-amine] | 802 ± 159 nM |
| CCCN(CCC)CCc1cccc(-c2c(C)noc2C)c1 [Example 28, {2-[3-(3,5-Dimethyl-isoxazol-4-yl)-phenyl]-ethyl}-dipropyl-amine] | 602 nM |
| Cc1nn(C)c(C)c1-c1cccc(CCN2CCCC2)c1 [Example 42, 1,3,5-Trimethyl-4-[3-(2-pyrrolidin-1-yl-ethyl)-phenyl]-1H-pyrazole] | 139 ± 0.7 nM |

Target: 5HT7 receptor (Homo sapiens, UniProt P34969)
Sequence (P34969 whole entry): as above
Test: Functionality assay on the 5HT7 receptor
Type: biochemical
Settings: not given
Text: Functionality assay on the 5HT7 receptor were done according to those known in the state of the art.

| SMILES | EC50 | Emax |
| --- | --- | --- |
| Cc1nn(C)c(C)c1-c1cccc(CCN(C)C)c1 [Example 1, Dimethyl-{2-[3-(1,3,5-trimethyl-1H-pyrazol-4-yl)-phenyl]-ethyl}-amine] | 25.5 ± 2 nM | 94% |

Test system: 5-HT1
Test: 5-HT1 IC50
Type: binding
Settings: not given

| SMILES | IC50 |
| --- | --- |
| Cc1nn(C)c(C)c1-c1cccc(CCN(C)C)c1 [Example 1, Dimethyl-{2-[3-(1,3,5-trimethyl-1H-pyrazol-4-yl)-phenyl]-ethyl}-amine] | > 1000 nM |
